The values below come from patent US8501767B2, “Imidazopyridines and imidazopyrimidines as HIV-1 reverse transcriptase inhibitors” (CSIR, priority 2008, dated 2013).

One may read the IC50 as the point on the concentration scale where inhibition reaches its midpoint.

In assay [1] the test system is HIV-1. The experiment in a line: Whole cell PBMC anti-HIV assay (human PBMCs, supernatant reverse transcriptase activity). The format is cell-based. Particulars: Human immunodeficiency virus 1, PBMC. Here is the method:
Fresh human PBMCs, seronegative for HIV and HBV, were isolated from screened donors (Interstate Blood Bank, Inc. Memphis, Tenn.). Cells were pelleted/washed 2-3 times by low speed centrifugation and re-suspension in PBS to remove contaminating platelets. The Leukophoresed blood was then diluted 1:1 with Dulbecco's Phosphate Buffered Saline (DPBS) and layered over 14 mL of Lymphocyte Separation Medium (LSM; Cellgro® by Mediatech, Inc.; density 1.078+/−0.002 g/ml; Cat.#85-072-CL) in a 50 mL centrifuge tube and then centrifuged for 30 minutes at 600×g. Banded PBMCs were gently aspirated from the resulting interface and subsequently washed 2× with PBS by low speed centrifugation. […]
For the standard PBMC assay, PHA-P stimulated cells from at least two normal donors were pooled (mixed together), diluted in fresh medium to a final concentration of 1×10^6 cells/mL, and plated in the interior wells of a 96 well round bottom microplate at 50 μl/well (5×10^4 cells/well) in a standard format developed by the Infectious Disease Research department of Southern Research Institute. Pooling (mixing) of mononuclear cells from more than one donor is used to minimize the variability observed between individual donors, which results from quantitative and qualitative differences in HIV infection and overall response to the PHA and IL-2 of primary lymphocyte populations. […]

Assay [2] addresses HIV-1 reverse transcriptase (Human immunodeficiency virus type 1 group M subtype B (isolate HXB2) (HIV-1), UniProt P04585). The experiment in a line: Enzymatic assay against HIV-1 reverse transcriptase (sandwich-ELISA, ROCHE colorimetric reverse transcriptase kit). Format: biochemical. Particulars: 4-fold serial dilutions. As to the method:
Enzymatic Method for Determining Activity Against Reverse Transcriptase
Biotin and DIG-labelled nucleotides are incorporated into cDNA strands polymerized on an RNA template by the action of HIV-1 reverse transcriptase. The cDNA products are bound to streptavidin-coated wells of 96-well plate inserts, and their associated DIG-moieties detected by incubation with anti-DIG antibodies conjugated to horseradish peroxidase (HRP).
In the single concentration screen, compounds are incubated with HIV-1 reverse trancriptase and substrate and the residual enzyme activity expressed as a percentage relative to a control without inhibitor.
(In general: In an ELISA, binding on a coated surface is turned into a signal by an enzyme label.)

The subject of assay [3] is HIV-1. The experiment in a line: Whole cell MAGI anti-HIV assay (MAGI-R5 cells, LTR-β-galactosidase reporter). The format is cell-based. The following applies: Human immunodeficiency virus 1, MAGI.

As for `Clc1ccccc1-c1nc2ccccn2c1NC1CCCCC1` [Compound 8, 2-(2-chlorophenyl)-N-cyclohexylimidazo[1,2-a]pyridin-3-amine], the IC50 with HIV-1 [1] was found to be 0.16 µM.

`Clc1ccccc1-c1nc2cccc(Br)n2c1NC1CCCCC1` [Compound 42, 5-bromo-2-(2-chlorophenyl)-N-cyclohexylimidazo[1,2-a]pyridin-3-amine]: the half-inhibitory concentration (IC50) in assay [2] turned out to be 4.62 µM; in the assay on HIV-1 [3], 3.15 µM.

For the molecule `Brc1ccccc1-c1nc2ccccn2c1NC1CCCCC1` [Compound 43, 2-(2-bromophenyl)-N-cyclohexylimidazo[1,2-a]pyridin-3-amine], the 50% inhibitory concentration (IC50) came out at 10 µM in assay [2] and 2.21 µM in the assay on HIV-1 [3].

Take `Clc1ccccc1-c1nc2cccc(Cl)n2c1NC1CCCC1` [Compound 48, 5-chloro-2-(2-chlorophenyl)-N-cyclopentylimidazo[1,2-a]pyridin-3-amine]: the 50% inhibitory concentration (IC50) in assay [2] is 5.14 µM.

Take `Cc1ccc(Cl)c(-c2nc3ccccn3c2NC2CCCCC2)c1F` [Compound 74, 2-(6-chloro-2-fluoro-3-methylphenyl)-N-cyclohexylimidazo[1,2-a]pyridin-3-amine]: the results for the half-inhibitory concentration (IC50) (in assay [2]; with HIV-1 [3]) were 90 µM and 2.36 µM, respectively.

As for `Fc1ccc2nc(-c3ccccc3Cl)c(NC3CCCCC3)n2c1` [Compound 81, 2-(2-chlorophenyl)-N-cyclohexyl-6-fluoroimidazo[1,2-a]pyridin-3-amine], the half-inhibitory concentration (IC50) in assay [2] was 11.3 µM; in the assay on HIV-1 [3] it was 1.88 µM.

Take `Clc1ccc2nc(-c3ccccc3Cl)c(NC3CCCCC3)n2c1` [Compound 82, 6-chloro-2-(2-chlorophenyl)-N-cyclohexylimidazo[1,2-a]pyridin-3-amine]: the results for the 50% inhibitory concentration (IC50) (in assay [2]; in the assay on HIV-1 [3]) were 14.5 µM and 0.84 µM, respectively.

Consider `Clc1ccc(-c2nc3ccccn3c2NC2CCCCC2)c(Cl)c1` [Compound 89, N-cyclohexyl-2-(2,4-dichlorophenyl)imidazo[1,2-a]pyridin-3-amine], for which the half-maximal inhibitory concentration (IC50) in assay [2] is 21.8 µM; with HIV-1 [3], 2.95 µM.

Consider `N#Cc1ccc2nc(-c3ccccc3Cl)c(NC3CCCCC3)n2c1` [Compound 96, 2-(2-chlorophenyl)-3-(cyclohexylamino)imidazo[1,2-a]pyridine-6-carbonitrile], for which the figures for the half-inhibitory concentration (IC50) (in assay [2]; with HIV-1 [3]) were 6.6 µM and 0.63 µM, respectively.

In turn, `Clc1ccccc1-c1nc2ccc3ccccc3n2c1NC1CCCCC1` [Compound 97, 2-(2-chlorophenyl)-N-cyclohexylimidazo[1,2-a]quinolin-1-amine] gave a concentration for half-maximal inhibition (IC50) in assay [2] of 7.52 µM.

Regarding `Clc1ccccc1-c1nc2ccc(Br)cn2c1NC1CCCCC1` [Compound 99, 6-bromo-2-(2-chlorophenyl)-N-cyclohexylimidazo[1,2-a]pyridin-3-amine], the half-inhibitory concentration (IC50) in assay [2] turned out to be 12.2 µM; in the assay on HIV-1 [3], 2.19 µM.

Regarding `Clc1ccccc1-c1nc2cccc(Cl)n2c1NC1CCCCC1` [Compound 104, 5-chloro-2-(2-chlorophenyl)-N-cyclohexylimidazo[1,2-a]pyridin-3-amine], half-maximal inhibition in assay [2] (IC50) was put at 3.74 µM.

For the molecule `N#Cc1cccc2nc(-c3ccccc3Cl)c(NC3CCCCC3)n12` [Compound 116, 2-(2-chlorophenyl)-3-(cyclohexylamino)imidazo[1,2-a]pyridine-5-carbonitrile], 3.47 µM corresponded to half-maximal inhibition in assay [2] (IC50).

In the assay on HIV-1 [3], `Clc1ccccc1-c1nc2ccccn2c1NC1CCCC1` [Compound 118, 2-(2-chlorophenyl)-N-cyclopentylimidazo[1,2-a]pyridin-3-amine] came in with an IC50 of 2.19 µM.

Take `Cc1ccc2nc(-c3ccccc3Cl)c(NC3CCCCC3)n2c1` [Compound 163, 2-(2-chlorophenyl)-N-cyclohexyl-6-methylimidazo[1,2-a]pyridin-3-amine]: the IC50 in assay [2] is 5.39 µM.

`Cc1cccc2nc(-c3ccccc3Cl)c(NC3CCCCC3)n12` [Compound 166, 2-(2-chlorophenyl)-N-cyclohexyl-5-methylimidazo[1,2-a]pyridin-3-amine] gave an IC50 in assay [2] of 1.55 µM.

With `Cc1cccn2c(NC3CCCC3)c(-c3ccccc3Cl)nc12` [Compound 170, 2-(2-chlorophenyl)-N-cyclopentyl-8-methylimidazo[1,2-a]pyridin-3-amine], the midpoint of inhibition in assay [2], the IC50, lay at 15.9 µM.

The molecule `Cc1cccc2nc(-c3ccccc3Cl)c(NC3CCCC3)n12` [Compound 171, 2-(2-chlorophenyl)-N-cyclopentyl-5-methylimidazo[1,2-a]pyridin-3-amine] returned an IC50 in assay [2] of 1.43 µM.

Regarding `Cc1ccnc2c1NC(=O)c1cccnc1N2C1CC1` [Nevirapine, reference compound], the 50% inhibitory concentration (IC50) in the assay with HIV-1 [3] stood at 0.1 µM; with HIV-1 [1] it was 0.033 µM.
